Data on 1 compound can be found in patent publication US20050042711A1, “Field test for fungi” (GEORGE MASON UNIVERSITY, priority 2003, published 2005).

Series [1] concerns bacteria inoculated into the medium. Conditions: nicotinic acid 0.1 M; three to four days. As for the experimental part:
(§1) The base ISTOR medium has the following composition:
(§2) The medium was prepared in potassium phosphate buffer at pH 5.7.

The next series deals with fungi tested. Conditions: nicotinic acid 0.1 M; three to four days. The method, then:
as §1, §2

For `O=C(O)c1cccnc1` [nicotinic acid], the solubility in water entry is recorded as “not very soluble in water”. In addition, the growth of bacteria result in series [1] is “none of the bacteria inoculated into the medium grew”. For the same compound, in the series on fungi tested, the growth of fungi entry was “all of the fungi tested exhibited growth”.
